Measured values: patent publication US6476263B1, “Compounds for inhibiting β-amyloid peptide release and/or its synthesis” (Elan Pharmaceuticals, Inc., priority 1996, dated 2002)
Non-standard residues stand in square brackets, D forms with d. Residues, ends and D or L forms follow the SMILES beside them. ξ: configuration not given here. *: point of attachment. Isovaleryl = CC(C)CC(=O)*; ξChg = NC(C(=O)O)C1CCCCC1

melting point [°C] | SMILES
196 to 198 | CCOC(=O)[C@H](C)NC(=O)[C@@H](NC(=O)CC1CCCCC1)c1ccccc1 [Example 110, N-[N-(Cyclohexylacetyl)L-phenylglycinyl]-L-alanine Ethyl Ester]
165 to 168 | COCC(NC(=O)[C@H](C)NC(=O)Cc1cc(F)cc(F)c1)C(=O)OC (stereo partly drawn) [Example 24, Methyl N-[N-(3,5-Difluorophenylacetyl)-L-alaninyl]-2-amino-3-methoxypropionate]
117 to 119 | CCOC(=O)[C@H](Cc1ccc(O)cc1)NC(=O)[C@H](C)NC(=O)Cc1cccc([N+](=O)[O-])c1 [Example 81, N-[N-(3-Nitrophenylacetyl)-L-alaninyl]-L-tyrosine Ethyl Ester]
147 to 149.5 | COC(=O)[C@H](CCc1ccccc1)NC(=O)[C@H](C)NC(=O)Cc1cc(F)cc(F)c1 [Example 44, Methyl N-[N-(3,5-Difluorophenylacetyl)-L-alaninyl]-(S)-2-amino-4-phenylbutanoate]
195 to 197 | COC(=O)[C@H](Cc1c[nH]cn1)NC(=O)[C@H](C)NC(=O)Cc1cc(F)cc(F)c1 [Example 2, N-[N-(3,5-Difluorophenylacetyl)-L-alaninyl]-L-histidine Methyl Ester]
170 to 174 | COC(=O)C(NC(=O)[C@H](C)NC(=O)Cc1cc(F)cc(F)c1)c1ccc(OC)cc1 (stereo partly drawn) [Example 64, Methyl N-[N-(3,5-Difluorophenylacetyl)-L-alaninyl]-2-amino-2-(4-methoxyphenyl)acetate]
116 to 119 | COC(=O)[C@H](Cc1ccc(OCC(=O)OC(C)(C)C)cc1)NC(=O)[C@H](C)NC(=O)Cc1cc(F)cc(F)c1 [Example 14, N-[N-(3,5-Difluorophenylacetyl)-L-alaninyl]-L-4-[(tert-butyloxycarbonyl)methoxy]phenylalanine Methyl Ester]
220 to 224 | CCOC(=O)[C@H](C)NC(=O)C(NC(=O)CC(C)C)C1CCCCC1 (stereo partly drawn) [Example 128, N-[N-(Isovaleryl)-2-amino-2-cyclohexylacetyl]-L-alanine Ethyl Ester] (Isovaleryl-[ξChg]-Ala-OEt)
185 | CC(C)(C)OC(=O)[C@@H](NC(=O)[C@@H](NC(=O)Cc1cc(F)cc(F)c1)c1ccccc1)c1ccccc1 [Example 263, N-[N-(3,5-Difluorophenylacetyl)-L-phenylglycinyl]-L-phenylglycine tert-Butyl Ester]
138.7 to 140 | CC[C@H](NC(=O)Cc1cc(F)cc(F)c1)C(=O)N[C@H](C(=O)OC(C)(C)C)c1ccccc1 [Example 191, N-[N-(3,5-Difluorophenylacetyl)-(S)-2-aminobutanoyl]-L-phenylglycine tert-Butyl Ester]
123 to 125 | CCOC(=O)C(NC(=O)[C@H](C)NC(=O)Cc1cc(F)cc(F)c1)c1ccccn1 (stereo partly drawn) [Example 65, Ethyl N-[N-(3,5-Difluorophenylacetyl)-L-alaninyl]-2-amino-2-(2-pyridyl)acetate]
114 to 118 | COC(=O)C1CCCCN1C(=O)[C@H](C)NC(=O)Cc1cc(F)cc(F)c1 (stereo partly drawn) [Example 218, Methyl 1-[N-(3,5-Difluorophenylacetyl)-L-alaninyl]piperidine-2-carboxylate]
180 to 181 | COC(=O)[C@H](NC(=O)[C@H](C)NC(=O)Cc1cc(F)cc(F)c1)c1cccs1 [Example 178, Methyl N-[N-(3,5-Difluorophenylacetyl)-L-alaninyl]-(S)-2-amino-2-(2-thienyl)acetate]
85 to 88 | COC(=O)[C@H](Cc1ccc(O)cc1)NC(=O)[C@H](C)NC(=O)Cc1cc(F)cc(F)c1 [Example 15, N-[N-(3,5-Difluorophenylacetyl)-L-alaninyl]-L-tyrosine Methyl Ester]
142.3 | COC(=O)[C@@H](NC(=O)CNC(=O)Cc1cc(F)cc(F)c1)c1ccccc1 [Example 198, N-[N-(3,5-Difluorophenylacetyl)glycinyl]-L-phenylglycine Methyl Ester]
198 to 200 | COC(=O)[C@@H](NC(=O)[C@H](C)NC(=O)Cc1cc(F)cc(F)c1)c1ccccc1 [Example 111, N-[N-(3,5-Difluorophenylacetyl)-L-alaninyl]-L-phenylglycine Methyl Ester]
189.3 | COC(=O)[C@@H](NC(=O)[C@H](CCSC)NC(=O)Cc1cc(F)cc(F)c1)c1ccccc1 [Example 193, N-[N-(3,5-Difluorophenylacetyl)-L-methioninyl]-L-phenylglycine Methyl Ester]
123 to 126 | COC(=O)[C@H](CCCCN(C)C)NC(=O)[C@H](C)NC(=O)Cc1cc(F)cc(F)c1 [Example 18, Methyl N-[N-(3,5-Difluorophenylacetyl)-L-alaninyl]-(S)-2-amino-6-(N,N-dimethylamino)hexanoate]
125.5 to 126.5 | C=CCCC(=O)N[C@@H](C)C(=O)N[C@@H](Cc1ccccc1)C(=O)OC [Example 11, N-[N-(Pent-4-enoyl)-L-alaninyl]-L-phenylalanine Methyl Ester]

melting point [°C] | SMILES
177 to 178 | COC(=O)[C@@H](NC(=O)[C@H](C)NC(=O)Cc1cc(F)cc(F)c1)c1ccc2cc(OC)ccc2c1 [Example 182, Methyl N-[N-(3,5-Difluorophenylacetyl)-L-alaninyl]-(S)-2-amino-2-(6-methoxy-2-naphthyl)acetate]
175 to 181 | CCOC(=O)C(NC(=O)[C@H](C)NC(=O)Cc1cc(F)cc(F)c1)c1ccncc1 (stereo partly drawn) [Example 66, Ethyl N-[N-(3,5-Difluorophenylacetyl)-L-alaninyl]-2-amino-2-(4-pyridyl)acetate]
243 to 245 | COC(=O)[C@@H](NC(=O)[C@H](C)NC(=O)[C@H](C)NC(=O)Cc1cc(F)cc(F)c1)c1ccccc1 [Example 112, N-[N-[N-(3,5-Difluorophenylacetyl)-L-alaninyl]-L-alaninyl]-L-phenylglycine Methyl Ester]
170.5 to 171.8 | CC(C)[C@H](NC(=O)Cc1cc(F)cc(F)c1)C(=O)N[C@H](C(=O)OC(C)(C)C)c1ccccc1 [Example 192, N-[N-(3,5-Difluorophenylacetyl)-L-valinyl]-L-phenylglycine tert-Butyl Ester]
135 to 138 | CC(C)COC(=O)[C@H](C)NC(=O)[C@H](Cc1ccccc1)NC(=O)CC(C)C [Example 84, N-[N-(Isovaleryl)-L-phenylalaninyl]-L-alanine iso-butyl Ester]
136 to 139 | COC(=O)[C@H](Cc1cscn1)NC(=O)[C@H](C)NC(=O)Cc1cc(F)cc(F)c1 [Example 31, Methyl N-[N-(3,5-Difluorophenylacetyl)-L-alaninyl]-(S)-2-amino-3-(thiazol-4-yl)propionate]
161 to 162 | COC(=O)C(NC(=O)[C@H](C)NC(=O)Cc1cc(F)cc(F)c1)c1cccs1 (stereo partly drawn) [Example 176, Methyl N-[N-(3,5-Difluorophenylacetyl)-L-alaninyl]-2-amino-2-(2-thienyl)acetate]
137 | C[C@H](NC(=O)Cc1cc(F)cc(F)c1)C(=O)NCC(=O)OCCCc1ccccc1 [Example 46, N-[N-(3,5-Difluorophenylacetyl)-L-alaninyl]glycine 3-Phenylpropyl Ester]
170 to 171 | C[C@H](NC(=O)Cc1cc(F)cc(F)c1)C(=O)N[C@@H](Cc1ccccc1)C(=O)OCc1ccccc1 [Example 37, N-[N-(3,5-Difluorophenylacetyl)-L-alaninyl]-L-phenylalanine Benzyl Ester]
156 to 158 | COC(=O)[C@H](Cc1ccccc1)NC(=O)[C@H](C)NC(=O)CC1CCCCC1 [Example 67, N-[N-(Cyclohexylacetyl)-L-alaninyl]-L-phenylalanine Methyl Ester]
103 to 106 | CC[C@H](NC(=O)[C@H](C)NC(=O)Cc1cc(F)cc(F)c1)C(=O)OC [Example 160, Methyl N-[N-(3,5-difluorophenylacetyl)-L-alaninyl]-(S)-2-aminobutanoate]
135 to 137 | CCC[C@H](NC(=O)[C@H](C)NC(=O)Cc1ccccc1)C(=O)OC [Example 209, Methyl N-[N-(Phenylacetyl)-L-alaninyl]-2-(S)-aminopentanoate] (HELM PEPTIDE1{[O=C(Cc1ccccc1)[*:2]].A.[Nva].[CO[*:1]]}$$$$V2.0)
102.5 to 105 | COC(=O)[C@H](CC(C)C)NC(=O)[C@H](C)NC(=O)Cc1ccccc1 [Example 201, N-[N-(Phenylacetyl)-L-alaninyl]-L-leucine Methyl Ester] (HELM PEPTIDE1{[O=C(Cc1ccccc1)[*:2]].A.L.[CO[*:1]]}$$$$V2.0)
203 to 207 | COC(=O)[C@@H](NC(=O)[C@H](Cc1ccccc1)NC(=O)[C@H](C)NC(=O)Cc1cc(F)cc(F)c1)c1ccccc1 [Example 109, N-[N-[N-(3,5-Difluorophenylacetyl)-L-alaninyl]-L-phenylalaninyl]-L-phenylglycine Methyl Ester]
142 to 143 | CCCC[C@H](NC(=O)[C@H](C)NC(=O)Cc1cc(F)cc(F)c1)C(=O)OC [Example 1, Methyl N-[N-(3,5-Difluorophenylacetyl)-L-alaninyl]-(S)-2-aminohexanoate]
234.4 | COC(=O)[C@@H](NC(=O)CC1CCCC[C@@H]1NC(=O)Cc1cc(F)cc(F)c1)c1ccccc1 (stereo partly drawn) [Example 225, N-[N-(3,5-Difluorophenylacetyl)-2-(S)-aminocyclohexylacetyl]-L-phenylglycine Methyl Ester]
204 to 205 | CCC[C@H](NC(=O)Cc1cc(F)cc(F)c1)C(=O)N[C@H](C(=O)OC)c1ccccc1 [Example 253, N-[N-(3,5-Difluorophenylacetyl)-L-norvalinyl]-L-phenylglycine Methyl Ester]
189 to 190 | COC(=O)C(NC(=O)[C@H](C)NC(=O)Cc1cc(F)cc(F)c1)c1cc2cc(Cl)ccc2s1 (stereo partly drawn) [Example 173, Methyl N-[N-(3,5-Difluorophenylacetyl)-L-alaninyl]-2-amino-2-(5-chlorobenzothiophen-2-yl)acetate]
190.8 | CC(C)(C)OC(=O)[C@@H](NC(=O)[C@@H](NC(=O)CC1CCCC1)c1ccccc1)c1ccccc1 [Example 265, N-[N-(Cyclopentylacetyl)-L-phenylglycinyl]-L-phenylglycine tert-Butyl Ester]
